Assay results reported in paper PMC9292215 (Clinical Pharmacology and Therapeutics, 2021).

Experiment: Plasma pharmacokinetics of BIA 10-2474 and metabolites
Assay type: in vivo, human
Conditions: for Cmax / Tmax / AUC(0-inf) / AUC(0-t) / clearance / half-life / concentration at 10 day / AUC: human, plasma, oral; for AUC(0-t): AUC0–t; for clearance: CL; for AUC: AUC0–τ
[1] = both, 0.25 mg, single dose 0.25 mg
[2] = both, 1.25 mg, single dose 1.25 mg
[3] = both, 2.5 mg, single dose 2.5 mg
[4] = both, 100 mg, single dose 100 mg
[5] = 2.5 mg, 2.5 mg once daily, Day 1
[6] = 2.5 mg, 2.5 mg once daily, Day 10

With CN(C(=O)n1cnc(-c2ccc[n+]([O-])c2)c1)C1CCCCC1 [BIA 10-2474, 3-(1-(cyclohexyl(methyl)carbamoyl)-1H-imidazol-4-yl)pyridine 1-oxide] the V/F (2.5 mg once daily, Day 1) was 56.1 (18.7) L, the Racc (2.5 mg once daily, Day 10) was 1.15 and the V/F (2.5 mg once daily, Day 10) was 57.0 (26.0) L. For the same compound, the V/F (5 mg once daily, Day 1) was 63.2 (20.4) L, the Racc (5 mg once daily, Day 10) was 1.31 and the V/F (5 mg once daily, Day 10) was 65.3 (17.4) L. For the same compound, the V/F (10 mg once daily, Day 1) was 69.0 (22.8) L, the Racc (10 mg once daily, Day 10) was 1.59 and the V/F (10 mg once daily, Day 10) was 61.4 (17.9) L. The V/F (20 mg once daily, Day 1) was 66.3 (7.34) L, the Racc (20 mg once daily, Day 10) was 1.57 and the V/F (20 mg once daily, Day 10) was 64.1 (15.4) L. The V/F (50 mg once daily, Day 1) was 67.9 (9.78) L, the “accumulation ratio, based on AUC0–24h” value (Day 10) was less than 2 and the “Overall fold increase in AUC0–τ” value (MAD Day 1) was 19.6. For the same compound, the “Overall fold increase in Cmax” value (MAD Day 1) was 14.5, the “Fold increase in AUC0–τ” value (MAD Day 1, 2.5 to 5 mg) was 1.8 and the “Fold increase in Cmax” value (MAD Day 1, 2.5 to 5 mg) was 1.7. For the same compound, the “Fold increase in AUC0–τ” value (MAD Day 1, 5 to 10 mg) was 2.0, the “Fold increase in Cmax” value (MAD Day 1, 5 to 10 mg) was 1.9 and the “Fold increase in AUC0–τ” value (MAD Day 1, 10 to 20 mg) was 2.1. The “Fold increase in Cmax” value (MAD Day 1, 10 to 20 mg) was 2.0, the “Fold increase in AUC0–τ” value (MAD Day 1, 20 to 50 mg) was 2.6 and the “Fold increase in Cmax” value (MAD Day 1, 20 to 50 mg) was 2.3. For the same compound, the “Overall fold increase in AUC0–τ” value (MAD Day 10) was 8.84, the “Overall fold increase in Cmax” value (MAD Day 10) was 7.53 and the “Fold increase in AUC0–τ” value (MAD Day 10, 2.5 to 5 mg) was 1.7. The “Fold increase in Cmax” value (MAD Day 10, 2.5 to 5 mg) was 1.6, the “Fold increase in AUC0–τ” value (MAD Day 10, 5 to 10 mg) was 2.4 and the “Fold increase in Cmax” value (MAD Day 10, 5 to 10 mg) was 2.2. The “Fold increase in AUC0–τ” value (MAD Day 10, 10 to 20 mg) was 2.1, the “Fold increase in Cmax” value (MAD Day 10, 10 to 20 mg) was 2.1 and the “Fold increase in Cmax” value (SAD, 1.25 to 2.5 mg) was 1.9. For the same compound, the “Fold increase in AUC0–t” value (SAD, 2.5 to 5 mg) was 2.4, the “Fold increase in Cmax” value (SAD, 2.5 to 5 mg) was 2.7 and the “Fold increase in AUC0–t” value (SAD, 5 to 10 mg) was 2.1. The “Fold increase in Cmax” value (SAD, 5 to 10 mg) was 1.7, the “Fold increase in AUC0–t” value (SAD, 10 to 20 mg) was 2.8 and the “Fold increase in Cmax” value (SAD, 10 to 20 mg) was 2.1. For the same compound, the “Fold increase in AUC0–t” value (SAD, 20 to 40 mg) was 2.2, the “Fold increase in Cmax” value (SAD, 20 to 40 mg) was 2.6 and the “Fold increase in AUC0–t” value (SAD, 40 to 100 mg) was 2.6. The “Fold increase in Cmax” value (SAD, 40 to 100 mg) was 2.2, the “Overall fold increase in AUC0–t” value (SAD, over the dosage range) was 19.6 and the Cmax [1] was 3.1 ng/mL. It also gave a Tmax [1] of 2 h, an AUC(0-inf) (both, 1.25 mg) of 142 ng·h/mL and an AUC(0-t) [2] of 98 ng·h/mL. For the same compound, the clearance [2] was 155 mL/min, the Cmax [2] was 16.2 ng/mL and the half-life (both, 1.25 mg, t1/2, single dose 1.25 mg) was 6.54 h. It also gave a Tmax [2] of 1.5 h, an AUC(0-inf) (both, 2.5 mg) of 338 ng·h/mL and an AUC(0-t) [3] of 289 ng·h/mL. It also gave a clearance [3] of 131 mL/min, a Cmax [3] of 31.2 ng/mL and a half-life (both, 2.5 mg, t1/2, single dose 2.5 mg) of 7.04 h. It also gave a Tmax [3] of 1.5 h, an AUC(0-t) (both, 5 mg, single dose 5 mg) of 693 ng·h/mL and a Cmax (both, 5 mg, single dose 5 mg) of 85.4 ng/mL. It also gave a Tmax (both, 5 mg, single dose 5 mg) of 2 h, a clearance (both, 40 mg, single dose 40 mg) of 116 mL/min and a half-life (both, 40 mg, t1/2, single dose 40 mg) of 7.84 h. The Tmax (both, 40 mg, single dose 40 mg) was 2 h, the AUC(0-inf) (both, 100 mg) was 23200 ng·h/mL and the AUC(0-t) [4] was 23000 ng·h/mL. The clearance [4] was 75.2 mL/min, the Cmax [4] was 1770 ng/mL and the half-life (both, 100 mg, t1/2, single dose 100 mg) was 9.13 h. For the same compound, the Tmax [4] was 2 h, the half-life (both, drug half-life in plasma) was 6 to 10 h and the half-life (both, mean terminal elimination half-life, Day 10) was 8 to 10 h. It also gave a concentration at 10 day (2.5 mg) of 6.24 ng/mL, an AUC(0-t) [5] of 384 ng·h/mL and an AUC [5] of 397 ng·h/mL. The AUC [6] was 526 ng·h/mL, the clearance [5] was 98.3 mL/min and the clearance [6] was 81.5 mL/min. It also gave a Cmax [5] of 46 ng/mL, a Cmax [6] of 52.6 ng/mL and a half-life (2.5 mg, t1/2, 2.5 mg once daily, Day 1) of 6.73 h. The half-life (2.5 mg, t1/2, 2.5 mg once daily, Day 10) was 8.04 h, the Tmax [5] was 2 h and the Tmax [6] was 2 h. The AUC(0-inf) (5 mg) was 752 ng·h/mL, the concentration at 10 day (5 mg) was 10.8 ng/mL and the AUC(0-t) (5 mg, 5 mg once daily, Day 1) was 695 ng·h/mL. The AUC (5 mg, 5 mg once daily, Day 1) was 708 ng·h/mL, the AUC (5 mg, 5 mg once daily, Day 10) was 909 ng·h/mL and the clearance (5 mg, 5 mg once daily, Day 1) was 125 mL/min. The clearance (5 mg, 5 mg once daily, Day 10) was 101 mL/min and the clearance (5 mg, single dose 5 mg) was 114 mL/min.
